Reference: patent US9751885B2, “Cyclopropanamine compound and use thereof” (Takeda Pharmaceutical Company Limited, priority 2012, dated 2017)
Where a name gives a salt, the structure may show the parent alone.

Legend:
MAO-A enzyme = MAO-A enzyme (Homo sapiens (Human), UniProt P21397); test: Measurement of MAO-A inhibitory activity (MAO-Glo Assay); type: biochemical
Protocol: The MAO-A inhibitory activity evaluation described below followed the protocol of MAO-Glo (registered trademark) Assay of Promega KK.
A test compound dissolved in 4% DMSO was added by 12.5 μL to 25 μL reaction solution (100 mM HEPES (pH 7.5), 5% glycerol) containing 400 ng of MAO-A enzyme (Sigma-Aldrich Co. LLC.), and the mixture was reacted at room temperature for 10 min. […] After reaction at room temperature for 60 min, Luciferine detection reagent (Promega KK) (50 μL) was added to terminate the reaction. After reaction at room temperature for min with stirring, the luminescence was measured by Envision (PerkinElmer). The MAO-A inhibitory rate (%) of the test compound was calculated by the following formula. inhibitory rate(%)=(1−(test compound count−blank)÷(control−blank))×100
The count of the MAO-A enzyme reaction mixture under compound non-addition conditions is indicated as control, and the count under compound non-addition and MAO-A enzyme non-addition conditions is indicated as blank.

MAO-B enzyme = MAO-B enzyme (Homo sapiens (Human), UniProt P27338); test: Measurement of MAO-B inhibitory activity (MAO-Glo Assay); conditions: read-out: MAO-B IC50 value;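 further: luminescence read-out, compound preincubated 10 min with enzyme then reacted 60 min at room temperature, inhibition relative to enzyme reaction without compound, blank lacking enzyme and compound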
human LSD1(172-833) = human LSD1(172-833) (Homo sapiens (Human), UniProt O60341); test: Measurement of LSD1 inhibitory activity (time-resolved fluorescence, biotin-histone H3 mono methylated K4 peptide); type: biochemical
Protocol: When the turbidity reached 500 Klett units, the culture temperature was changed to 16° C., IPTG (Isopropyl β-D-1-thiogalactopyranoside) having a final concentration of 0.5 mM was added to induce expression, and the cells were cultured further for 14 hr. The culture medium was centrifuged at 6,000 g for 15 min, and Escherichia coil pellets were recovered.
Using Branson ultrasonic disintegrator, the suspension was disrupted by ultrasonication for 3 min, and centrifuged at 33,000 g for 60 min, and the supernatant was recovered. […] It was concentrated to 10 mL with AmiconUltra (NWCO 30K) (Millipore Japan), and purified with HiLoad 26/60 Superdex 200 pg column (GE Healthcare) equilibrated with Buffer A to give hLSD1 purified product (8.4 mg). The protein concentration of hLSD1 was measured by BCA Protein Assay Kit (Thermo Fisher Scientific K.K.) using bovine serum albumin as the standard.
(5) Measurement of LSD1 Inhibitory Activity
After reaction at room temperature for 5 min, 1 mM 2-PCPA solution was added 5 μL to terminate the reaction. A detection solution ([…] potassium fluoride, 0.1% BSA) containing europium-labeled anti-histone H3 antibody (Wako Pure Chemical Industries, Ltd.) and Streptavidin-XL665 (Cisbio) was further added by 5 μL, and the mixture was left standing for 60 min.

Sequence of MAO-B enzyme (P27338 whole entry): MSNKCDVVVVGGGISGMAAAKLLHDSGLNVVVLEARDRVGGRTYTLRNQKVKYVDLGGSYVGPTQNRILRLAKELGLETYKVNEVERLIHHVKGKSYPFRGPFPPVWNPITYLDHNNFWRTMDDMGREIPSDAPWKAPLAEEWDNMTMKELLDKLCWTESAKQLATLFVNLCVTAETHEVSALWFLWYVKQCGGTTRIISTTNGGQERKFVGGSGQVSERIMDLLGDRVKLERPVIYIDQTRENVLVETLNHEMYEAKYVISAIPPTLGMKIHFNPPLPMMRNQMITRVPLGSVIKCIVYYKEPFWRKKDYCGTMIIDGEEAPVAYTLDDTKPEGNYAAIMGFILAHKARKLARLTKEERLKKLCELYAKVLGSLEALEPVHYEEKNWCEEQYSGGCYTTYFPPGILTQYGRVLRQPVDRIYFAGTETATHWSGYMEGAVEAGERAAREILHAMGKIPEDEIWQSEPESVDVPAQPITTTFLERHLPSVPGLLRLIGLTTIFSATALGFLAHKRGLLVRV
Sequence of MAO-A enzyme (P21397 whole entry): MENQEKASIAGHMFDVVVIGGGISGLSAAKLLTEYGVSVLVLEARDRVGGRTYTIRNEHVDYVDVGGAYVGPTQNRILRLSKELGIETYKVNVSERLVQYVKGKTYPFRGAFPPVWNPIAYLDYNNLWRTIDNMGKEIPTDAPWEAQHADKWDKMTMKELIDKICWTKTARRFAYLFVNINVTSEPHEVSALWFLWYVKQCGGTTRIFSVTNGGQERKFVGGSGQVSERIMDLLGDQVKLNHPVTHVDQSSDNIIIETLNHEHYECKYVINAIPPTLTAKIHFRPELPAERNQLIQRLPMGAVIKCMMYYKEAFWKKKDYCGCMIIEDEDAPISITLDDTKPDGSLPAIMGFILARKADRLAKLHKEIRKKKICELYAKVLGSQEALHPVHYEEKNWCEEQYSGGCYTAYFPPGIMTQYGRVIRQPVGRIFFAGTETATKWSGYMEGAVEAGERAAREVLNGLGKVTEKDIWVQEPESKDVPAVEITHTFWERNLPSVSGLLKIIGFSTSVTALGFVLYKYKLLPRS

SMILES | IC50 (MAO-A enzyme) | IC50 (MAO-B enzyme) | IC50 (human LSD1(172-833))
Cn1cc(NC(=O)c2ccc([C@@H]3C[C@H]3NCC3CC3)cc2)cn1 (relative stereo) [Example 53, 4-(trans-2-((cyclopropylmethyl)amino)cyclopropyl)-N-(1-methyl-1H-pyrazol-4-yl)benzamide dihydrochloride] | > 10 µM | > 10 µM | < 0.1 µM
O=C(Nc1cccc(C(F)(F)F)c1)c1ccc([C@@H]2C[C@H]2NC2CCS(=O)(=O)CC2)cc1 (relative stereo) [Example 62, 4-(trans-2-((1,1-dioxidotetrahydro-2H-thiopyran-4-yl)amino)cyclopropyl)-N-(3-(trifluoromethyl)phenyl)benzamide hydrochloride] | > 10 µM | 4.8 µM | < 0.1 µM
CN(C(=O)c1cccc([C@@H]2C[C@H]2NCC2CC2)c1)c1ccccc1 (relative stereo) [Example 80, 3-(trans-2-((cyclopropylmethyl)amino)cyclopropyl)-N-methyl-N-phenylbenzamide hydrochloride] | 0.9 µM | > 10 µM | < 0.1 µM
O=C(Nc1cccc(-c2ncccn2)c1)c1cccc([C@@H]2C[C@H]2NCC2CC2)c1 (relative stereo) [Example 81, 3-(trans-2-((cyclopropylmethyl)amino)cyclopropyl)-N-(3-(pyrimidin-2-yl)phenyl)benzamide dihydrochloride] | 5.2 µM | > 10 µM | < 0.1 µM
O=C(NC1CCCC1)c1cccc([C@@H]2C[C@H]2NCC2CCOCC2)c1 (relative stereo) [Example 83, N-cyclopentyl-3-(trans-2-((tetrahydro-2H-pyran-4-ylmethyl)amino)cyclopropyl)benzamide hydrochloride] | > 10 µM | > 10 µM | < 0.1 µM
CCn1cc(NC(=O)c2cccc([C@@H]3C[C@H]3NCC3CCOCC3)c2)cn1 (relative stereo) [Example 86, N-(1-ethyl-1H-pyrazol-4-yl)-3-(trans-2-((tetrahydro-2H-pyran-4-ylmethyl)amino)cyclopropyl)benzamide dihydrochloride] | > 10 µM | > 10 µM | < 0.1 µM
CC(C)(C)n1cc(NC(=O)c2cccc([C@@H]3C[C@H]3NCC3CCOCC3)c2)cn1 (relative stereo) [Example 89, N-(1-tert-butyl-1H-pyrazol-4-yl)-3-(trans-2-((tetrahydro-2H-pyran-4-ylmethyl)amino)cyclopropyl)benzamide dihydrochloride] | > 10 µM | > 10 µM | < 0.1 µM
Cc1ncc(NC(=O)c2cccc([C@@H]3C[C@H]3NCC3CCOCC3)c2)s1 (relative stereo) [Example 90, N-(2-methyl-1,3-thiazol-5-yl)-3-(trans-2-((tetrahydro-2H-pyran-4-ylmethyl)amino)cyclopropyl)benzamide dihydrochloride] | > 10 µM | > 10 µM | < 0.1 µM
Cc1cc(NC(=O)c2cccc([C@@H]3C[C@H]3NCC3CCOCC3)c2)on1 (relative stereo) [Example 92, N-(3-methyl-1,2-oxazol-5-yl)-3-(trans-2-((tetrahydro-2H-pyran-4-ylmethyl)amino)cyclopropyl)benzamide hydrochloride] | > 10 µM | > 10 µM | < 0.1 µM
O=C(NCCc1ccccc1)c1cccc([C@@H]2C[C@H]2NCC2CC2)c1 (relative stereo) [Example 120, 3-(trans-2-((cyclopropylmethyl)amino)cyclopropyl)-N-(2-phenylethyl) benzamide trifluoroacetate] | 9.6 µM | > 10 µM | < 0.1 µM
O=C(Nc1cccc(F)c1)c1cccc([C@@H]2C[C@H]2NCC2CC2)c1 (relative stereo) [Example 122, 3-(trans-2-((cyclopropylmethyl)amino)cyclopropyl)-N-(3-fluorophenyl) benzamide trifluoroacetate] | > 10 µM | > 10 µM | < 0.1 µM
